In patent US9958452B2, “Highly fluorogenic protein labelling agents” (UNIVERSITY OF OTTAWA, priority 2015, dated 2018):

Tests used:
MBP-dC10α [1] = assay: Fluorescence enhancement of fluorogen after labelling of test protein MBP-dC10α; type: biochemical; conditions: for fluorescence enhancement after reaction with MBP-dC10α: 25 μM fluorogen + 25 μM MBP-dC10α, overnight at 37° C., ratio of intensity at emission maximum; for background (latent) fluorescence of the unreacted fluorogen: 25 μM fluorogen without MBP-dC10α, 50 mM HEPES pH 7.4, 5% DMSO
Method: 3. Determination of Fluorescence Properties of Fluorogens, Fluorescence Changes after Labelling of Target Protein, Selectivity Over Other Thiols, and Fluorescence Enhancement Ratios.
(§1) Emission spectra and fluorescence intensity measurements were recorded at 37° C. with a Synergy H4 Hybrid Multi-Mode Microplate Reader with excitation and emission monochromators set at 9 nm bandpass. Concentrations of 2.5, 5, 12.5, 20, and 25 μM of MBP-dC10α were reacted with 25 μM YC23. The mixture of 25 μM solution of YC23 and 2.5, 5, 12.5 20, or 25 μM MBP-dC10α in 50 mM HEPES buffer (pH 7.4) with 5% DMSO was incubated at 37° C. in the dark for overnight after which the fluorescence emission spectrum was recorded (λex=480 nm). The emission spectra of YC23 in the same solution without MBP-dC10α were also recorded. The ratio of fluorescence intensity at maximum emission gave the fluorescence enhancement ratio. Selectivity tests were done with same protocol but with different concentrations of thiols. The mixture of 25 μM solution of YC28 or YC29 and 25 μM MBP-dC10α in 50 mM HEPES buffer (pH 7.4) with 5% DMSO was incubated at 37° C. in the dark for overnight after which the fluorescence emission spectrum was recorded. The emission spectra of YC28 or YC29 in the same solution without MBP-dC10α were also recorded. The ratio of fluorescence intensity at maximum emission gave the fluorescence enhancement ratio. λex for YC28 is 540 nm and λex for YC29 is 580 nm. Excitation and emission spectra were obtained for 25 μM of MBP-dC10α labelled with one equivalent of YC23 (FIG. 10), YC28 (FIG. 11a) or YC29 (FIG. 11b).

HEK293T cells = assay: MTT assay cytotoxicity; type: cell-based, Human; conditions: up to 100 μM, 20 hours
Method: 3-(4,5-Dimethylthiazol-2-yl)-2,5-diphenyl tetrazolium bromide (MTT) is a yellow tetrazolium salt and can be reduced to formazan crystals, which are insoluble in aqueous solutions, by active mitochondria in living cells. The resulting intracellular purple formazan can be dissolved in Triton X100, and therefore quantified by measuring absorption of the solution.
Cells were seeded in a 96-well plate and incubated with 100 μL of culture medium with different amounts of the fluorogen YCx for 20 h. No fluorogen was added to the positive control and no cells were plated in the negative control. Portions of 25 μL of MTT solution (5 mg in 1 mL of Hanks' balanced salt solution) were added to the wells and the cells were further incubated at 37° C. for 4 h. Solubilization solutions (100 μL) were then added and incubated in 96-well plates at room temperature in the dark overnight. The absorption of each well was measured using a plate reader at a wavelength of 570 nm with 690 nm as a reference. Cell viability was calculated according to the following equation: Cell viability=(Awith fluorogen−Anegative control)/(Apositive control−Anegative control)×100%

[2] = Selectivity over other thiols, overnight incubation; type: biochemical; conditions: 25 μM YC23 overnight; 250 μM Cys and Hcy, 1 mM GSH vs 25 μM MBP-dC10α
Method: The selectivity of fluorogen YC23 was tested by incubating it overnight in the presence of MBP-dC10α or other intracellular thiols.
as §1, with “Excitation and emission spectra were obtained for 25 μM of MBP-dC10α labelled with one equivalent of YC23 (FIG. 10), YC28 (FIG. 11a) or YC29 (FIG. 11b).” left out

[3] = test system: histone-H2B-dC10α in HEK293T cells; assay: Cellular labelling with confocal fluorescence microscopy; type: cell-based, Human; conditions: for fluorescence in cells transfected with histone-H2B-dC10α / fluorescence in negative-control cells (pcDNA / mock DNA): HEK293T, 10 μM fluorogen; for fluorescence in cells transfected with histone-H2B-dC10α: 30 min (YC23) or 45 min (YC29); for fluorescence in negative-control cells (pcDNA / mock DNA): same conditions
Method: HEK 293T cells were plated into 60-mm dishes and grown in MEM supplemented with 10% FBS, 100 units/mL of penicillin and 100 μg/mL of streptomycin for 16 h before transfection. Cells were transiently transfected with histone H2B-dC10α or pcDNA3.1 (mock) using lipofectamine 2000 following the manufacturer's instructions. […] Cells were observed and imaged on a Nikon confocal microscope with a 25× objective. Images were taken and analyzed with NIS-Elements software.

MBP-dC10α [4] = assay: Excitation and emission spectra of fluorogen-labelled MBP-dC10α; type: physicochemical; conditions: 25 μM MBP-dC10α labelled with one equivalent of fluorogen
Method: as §1

MBP-dC10α [5] = assay: Time-dependent fluorescence increase for kinetic studies with MBP-dC10α; type: biochemical
Method: 4. Time-Dependent Fluorescence Increase for Kinetic Studies.
Protein labelling kinetics were studied by following the time-dependent fluorescence increase at 37° C. using a Synergy H4 Hybrid Multi-Mode Microplate Reader with excitation and emission monochromators set at a 9-nm bandpass. The reaction was prepared in 50 mM HEPES buffer (pH 7.4) with 5% DMSO. Solutions of MBP-dC10α were prepared in a 96-well plate and labelling reagent YC23, YC28 or YC29 in DMSO was added immediately before recording. The final concentrations of YC23, YC28, YC29 and of MBP-dC10α were all 25 μM in 50 mM HEPES buffer (pH 7.4) with 5% DMSO. Samples were excited at 495 nm (YC23), 540 nm (YC28) or 580 nm (YC29) and fluorescence intensity was followed at 525 nm (YC23), 590 nm (YC28) or 630 nm (YC29) as a function of time.

MBP-dC10α [6] = assay: Labelling of MBP-dC10α, purified and in bacterial lysate, analysed by SDS-PAGE after heat denaturation; type: biochemical, Escherichia coli
Method: 10% SDS-PAGE gels developed by (A) fluorescence (λex=491 nm, λem=508 nm) and (B) Coomassie staining are shown. Lane 1: molecular weight markers. Lanes 2-3: Purified MBP-[…]α, concentrated to 50 μM and (lane 3) labelled with 50 μM YC23, prior to 10-fold dilution and loading. Lanes 4-6: Soluble lysate of bacteria expressing MBP-[…]α, treated with 10, 50, or 100 μM YC23 respectively and 0.5 mM TCEP overnight, prior to loading. The thiol addition reaction of a maleimide group typically results in the formation of robust covalent bonds, which should be stable under conditions in which the labelled protein may itself undergo denaturation. To test this hypothesis, we expressed MBP-[…]α in Escherichia coli and used YC23 to label the test protein in bacterial lysate as well as the purified test protein. These samples were then heated to 95° C. for 15 min, prior to analysis by SDS-PAGE. […] Furthermore, as shown in lanes 4-6, as little as 10 μM of YC23 was sufficient to label the test protein, in the complex biological mixture of cell lysate.

[7] = Time-dependent fluorescence increase with excess glutathione; type: biochemical

## COC1=CC(=O)N(c2ccc(C3=C4C(C)=CC(C)=[N+]4[B-](F)(F)n4c(C)cc(C)c43)c(N3C(=O)C=C(OC)C3=O)c2)C1=O [YC23, 10-(2,4-Bis(3-methoxy-2,5-dioxo-2,5-dihydro-1H-pyrrol-1-yl)phenyl)-5,5-difluoro-1,3,7,9-tetramethyl-5H-dipyrrolo[1,2-c:2′,1′-f][1,3,2]diazaborinin-4-ium-5-uide]
MBP-dC10α [1]; 25 μM YC23, 2.5-25 μM MBP-dC10α
  dependence of fluorescence increase on MBP-dC10α concentration: concentration-dependent
MBP-dC10α [1]
  fluorescence enhancement after reaction with MBP-dC10α: ca. 800 fold
  background (latent) fluorescence of the unreacted fluorogen: negligible background fluorescence
HEK293T cells
  effect on cell viability: negligible effect on cell viability
[2]
  fluorescence after incubation with other thiols relative to MBP-dC10α: < 10%
[3]
  fluorescence in cells transfected with histone-H2B-dC10α: strongly green fluorescent
  fluorescence in negative-control cells (pcDNA / mock DNA): negligible fluorescence
MBP-dC10α [4]
  emission maximum of labelled MBP-dC10α: 525 nm
  excitation maximum of labelled MBP-dC10α: 510 nm
MBP-dC10α [5]; 25 μM fluorogen + 25 μM MBP-dC10α, 37° C.
  time required to approach maximum fluorescence: more than 4 hours
MBP-dC10α [5]; 25 μM fluorogen + 25 μM MBP-dC10α, 37° C., 15 min
  fluorescence increase after 15 min: 10 fold
MBP-dC10α [6]; 95° C. for 15 min, then SDS-PAGE
  fluorescence of labelled purified test protein under denaturing conditions: maintained its fluorescence
MBP-dC10α [6]; soluble bacterial lysate, 0.5 mM TCEP, overnight
  concentration sufficient to label the test protein in cell lysate: ≤ 10 µM

## COC(=O)CSC1=[N+]2C(=C(c3ccccc3)c3ccc(Nc4cc(N5C(=O)C=C(OC)C5=O)cc(N5C(=O)C=C(OC)C5=O)c4)n3[B-]2(F)F)C=C1 [YC28, 7-((3,5-bis(3-methoxy-2,5-dioxo-2,5-dihydro-1H-pyrrol-1-yl)phenyl)amino)-5,5-difluoro-3-((2-methoxy-2-oxoethyl)thio)-10-phenyl-5H-dipyrrolo[1,2-c:2′,1′-f][1,3,2]diazaborinin-4-ium-5-uide]
MBP-dC10α [1]
  fluorescence enhancement after reaction with MBP-dC10α: 579 fold
  background (latent) fluorescence of the unreacted fluorogen: effectively quenched
MBP-dC10α [4]
  emission maximum of labelled MBP-dC10α: 592 nm
[7]; 25 μM MBP vs 5 mM GSH
  kinetic selectivity for MBP-dC10α relative to GSH: acceptable but not excellent

## COC1=CC(=O)N(c2cc(Nc3ccc4n3[B-](F)(F)[N+]3=C(N(C)c5ccccc5)C=CC3=C4c3ccccc3)cc(N3C(=O)C=C(OC)C3=O)c2)C1=O [YC29, 7-((3,5-bis(3-methoxy-2,5-dioxo-2,5-dihydro-1H-pyrrol-1-yl)phenyl)amino)-5,5-difluoro-3-(methyl(phenyl)amino)-10-phenyl-5H-dipyrrolo[1,2-c:2′,1′-f][1,3,2]diazaborinin-4-ium-5-uide]
MBP-dC10α [1]
  fluorescence enhancement after reaction with MBP-dC10α: 308 fold
  background (latent) fluorescence of the unreacted fluorogen: efficiently quenched
[3]; HEK293T expressing histone H2B-dC10α, 10 μM, 45 min
  localisation of fluorescence in transfected cells: localized in the nucleus
[3]
  fluorescence in cells transfected with histone-H2B-dC10α: Intense red fluorescence
  fluorescence in negative-control cells (pcDNA / mock DNA): no red fluorescence was detected
MBP-dC10α [4]
  emission maximum of labelled MBP-dC10α: 630 nm
MBP-dC10α [5]; 25 μM fluorogen, 25 μM MBP-dC10α
  reaction with MBP-dC10α test protein (time-dependent fluorescence): reacted readily
[7]; 5 mM GSH
  reaction with GSH (time-dependent fluorescence): did not show any detectable reaction
[7]; in presence of GSH vs MBP-dC10α
  stability and selectivity of the fluorogen: excellent stability and selectivity
